In ChEMBL document CHEMBL1158299, “Effects on cultured neonatal mouse calvaria of the flavonoids isolated from Boerhaavia repens” (1996) one finds Activity and inhibition data, which are given here for three compounds.

Holding throughout (conditions): Bone element
The test system of assay [1] is Bone. As to the kind of experiment: Inhibition of PTH-induced bone resorption in mouse parietal bone culture assessed as 45Ca2 release into culture medium at 200 uM by liquid scintillation counting. In kind it is functional, tissue-based.
Assay [2] has as its system Bone. As to the kind of experiment: Inhibition of PTH-induced bone resorption in mouse parietal bone culture assessed as 45Ca2 release into culture medium at 200 uM after 4 to 6 days by liquid scintillation counting. In kind it is functional.
Assay [3] has as its system Bone. As to the kind of experiment: Inhibition of bone resorption in mouse parietal bone culture assessed as 45Ca2 release into culture medium at 200 uM after 4 to 6 days by liquid scintillation counting. In kind it is functional.
Assay [4] relates to Bone. As to the kind of experiment: Inhibition of bone resorption in mouse parietal bone culture assessed as 45Ca2 release into culture medium at 200 uM after 0 to 3 days by liquid scintillation counting. The assay is classed as functional.

The source made the active and inactive calls. The rule behind the calls is not given here.

Take `COc1c(O)cc2oc(-c3ccc(O)cc3)c(O[C@@H]3O[C@H](CO[C@@H]4O[C@@H](C)[C@H](O)[C@@H](O)[C@H]4O)[C@H](O)[C@H](O)[C@H]3O)c(=O)c2c1O`: in the assay with Bone [1], the outcome was inactive.

`COc1cc2oc(-c3ccc(O)cc3)c(O[C@@H]3O[C@H](CO)[C@H](O)[C@H](O)[C@H]3O)c(=O)c2c(O)c1OC`: the inhibition at 200 µM in the assay on Bone [2] turned out to be 55.3%; in the assay on Bone [3], 23.1%; in the assay on Bone [4], 20.6%.

Take `COc1cc2oc(-c3ccc(O)cc3)c(O[C@@H]3O[C@H](CO)[C@@H](O)[C@H](O)[C@H]3O[C@@H]3O[C@H](CO)[C@H](O)[C@H](O)[C@H]3O)c(=O)c2c(O)c1OC`: the inhibition at 200 µM with Bone [2] was found to be 60.3%; in the assay on Bone [3], 38%; with Bone [4], 29.1%.

As a reminder, the inhibition is the drop in the measured response relative to a control, in per cent.
